The values that follow come from ChEMBL document CHEMBL1201862, “PubChem BioAssay data set” (2004).

Test systems include CCRF-CEM; DU-145; HCC 2998; HCT-15; HOP-92; K562; MDA-MB-231; NCI-H23; NCI-H460; NCI/ADR-RES; OVCAR-5; PC-3; RPMI-8226; SF-268; SF-295; SK-MEL-5; SK-OV-3; SNB-75; U-251; UACC-257.
What all share (assay): inhibition of tumour cell growth, NCI panel, 48 h

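In this assay, cells in 96-well plates receive the compound at five concentrations for 48 hours. Endpoints are linearly interpolated between the surrounding concentrations. Abbreviation: GI50, concentration required for 50% inhibition of growth.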 Active and inactive are the calls of the source. Rule as the data show it: active = GI50 up to about 1.1 µM and inactive = higher.

As to `C/C(=N\O)c1ccc(Nc2c3ccccc3nc3occc23)cc1`, the GI50 in the assay on CCRF-CEM was 0.184 µM (active); in the assay on DU-145, 1.05 µM (active); in the assay on HCC 2998, 0.316 µM (active); with HCT-15, 0.126 µM; with HOP-92 it was 12.2 µM (inactive); with K562, 0.174 µM (active). The GI50 in the assay with MDA-MB-231 was 0.9 µM (active); in the assay with NCI-H23, 1.36 µM (inactive); with NCI-H460, 0.2 µM (active); in the assay with NCI/ADR-RES, 0.115 µM (active); in the assay on OVCAR-5 it was 2.75 µM (inactive); in the assay with PC-3, 0.327 µM (active). The GI50 is 0.207 µM (active) in the assay on RPMI-8226; 0.514 µM (active) with SF-268; 0.151 µM (active) with SF-295; 0.222 µM (active) in the assay on SK-MEL-5; 0.421 µM (active) in the assay on SK-OV-3; 0.662 µM (active) with SNB-75. Further, the GI50 with U-251 is 0.333 µM (active); in the assay on UACC-257 it was 7.26 µM (inactive).

`CCOC(=O)c1cc2ncccc2c2ccccc12`: the GI50 in the assay with CCRF-CEM is > 100 µM (inactive); with DU-145, > 100 µM (inactive); in the assay on HCC 2998 it was > 100 µM (inactive); in the assay on HCT-15, greater than 100 µM; in the assay on HOP-92, > 100 µM (inactive); with K562 it was > 100 µM (inactive). For the same compound, the GI50 with MDA-MB-231, in the assay on NCI-H23, in the assay with NCI-H460, with NCI/ADR-RES, in the assay on OVCAR-5 and in the assay on PC-3 was > 100 µM (inactive) in each case. Also, the GI50 in the assay on RPMI-8226, with SF-268, in the assay on SF-295, in the assay with SK-MEL-5, in the assay on SK-OV-3 and with SNB-75 was > 100 µM (inactive) each time. Further, the GI50 with U-251 and in the assay with UACC-257 was > 100 µM (inactive) throughout.

As to `COc1ccc(C2SC(=N)Nc3c2c(C)nn3C(=O)c2ccncc2)cc1OC` (stereo not given), the GI50 in the assay on CCRF-CEM was > 10 µM (inactive); in the assay with DU-145, > 10 µM (inactive); in the assay on HCC 2998, > 10 µM (inactive); in the assay with HCT-15 it was greater than 10 µM; with HOP-92, > 10 µM (inactive); with K562 it was > 10 µM (inactive). Besides, the GI50 in the assay with MDA-MB-231, in the assay on NCI-H23, with NCI-H460, in the assay with NCI/ADR-RES, with OVCAR-5 and in the assay on PC-3 was > 10 µM (inactive) each time. For the same compound, the GI50 with RPMI-8226, in the assay with SF-268, in the assay with SF-295, with SK-MEL-5, in the assay on SK-OV-3 and in the assay with SNB-75 was > 10 µM (inactive) each time. Further, the GI50 in the assay on U-251 and with UACC-257 was > 10 µM (inactive) each time.

For `CN1CCN(C(=O)CCNC(=O)Cc2ccc(C(=O)c3ccccc3)cc2)CC1`, the GI50 in the assay with CCRF-CEM was 94.8 µM (inactive); with DU-145 it was > 100 µM (inactive); in the assay on HCC 2998, 50 µM (inactive); in the assay with HCT-15 it was greater than 100 µM; in the assay with HOP-92 it was > 100 µM (inactive); with K562, 27.9 µM (inactive). Further, the GI50 in the assay on MDA-MB-231, in the assay on NCI-H23, in the assay on NCI-H460, in the assay with NCI/ADR-RES, with OVCAR-5 and in the assay with PC-3 was > 100 µM (inactive) each time. Also, the GI50 with RPMI-8226 is > 100 µM (inactive); in the assay with SF-268, > 100 µM (inactive); in the assay on SF-295 it was > 100 µM (inactive); with SK-MEL-5 it was 71.6 µM (inactive); in the assay on SK-OV-3 it was > 100 µM (inactive); in the assay on SNB-75 it was > 100 µM (inactive). Besides, the GI50 in the assay with U-251 and in the assay on UACC-257 was > 100 µM (inactive) in each case.

As to `CN1c2c(O)nc(N)nc2NCC1CCNc1ccc(C(=O)NC(CCC(=O)O)C(=O)O)cc1` (stereo not given), the GI50 in the assay with CCRF-CEM was 62.5 µM (inactive); in the assay on DU-145, 1330 µM (inactive); with HCC 2998, 993 µM (inactive); in the assay on HCT-15, 1430 µM; in the assay with HOP-92, 1490 µM (inactive); with K562, 4.13 µM (inactive). Moreover, the GI50 in the assay with MDA-MB-231 is 1530 µM (inactive); with NCI-H23, 1640 µM (inactive); in the assay with NCI-H460, 35.6 µM (inactive); in the assay on NCI/ADR-RES it was 1920 µM (inactive); with OVCAR-5, 1520 µM (inactive); with PC-3, 7.16 µM (inactive). Besides, the GI50 is 141 µM (inactive) with RPMI-8226; 1110 µM (inactive) in the assay on SF-268; 187 µM (inactive) in the assay with SF-295; 1120 µM (inactive) in the assay on SK-MEL-5; 678 µM (inactive) in the assay with SK-OV-3; 553 µM (inactive) in the assay on SNB-75. For the same compound, the GI50 in the assay with U-251 is 32.4 µM (inactive); in the assay with UACC-257, 1030 µM (inactive).

For `COC1(C)OC[C@@]2(C)OC(C)C1(C)C2O[Si](C(C)C)(C(C)C)C(C)C` (stereo not given in full), the GI50 with CCRF-CEM is 25.1 µM (inactive); with DU-145, 38.7 µM (inactive); in the assay with HCC 2998, 20.1 µM (inactive); in the assay on HCT-15, 22.4 µM; in the assay with HOP-92, 24.9 µM (inactive); in the assay with K562, 26.5 µM (inactive). Moreover, the GI50 in the assay on MDA-MB-231 was 26.4 µM (inactive); in the assay on NCI-H23, 25.7 µM (inactive); with NCI-H460, 23.7 µM (inactive); in the assay with NCI/ADR-RES, 22.1 µM (inactive); in the assay on OVCAR-5 it was 26.6 µM (inactive); in the assay with PC-3 it was 31.2 µM (inactive). For the same compound, the GI50 with RPMI-8226 was 28.2 µM (inactive); in the assay on SF-268, 31.8 µM (inactive); in the assay with SF-295 it was 19.9 µM (inactive); in the assay on SK-MEL-5, 20.9 µM (inactive); in the assay on SK-OV-3, 24.4 µM (inactive); in the assay on SNB-75, 26.9 µM (inactive). Besides, the figures for the GI50 in the assay with U-251 and in the assay on UACC-257 were 28.5 µM (inactive) and 19.9 µM (inactive), respectively.

For the compound `NC(=O)C(=CNC(=S)Nc1ccccc1)C(N)=O`, the GI50 is > 100 µM (inactive) in the assay with CCRF-CEM; > 100 µM (inactive) in the assay with DU-145; > 100 µM (inactive) with HCC 2998; greater than 100 µM in the assay on HCT-15; 29.9 µM (inactive) in the assay on HOP-92; > 100 µM (inactive) in the assay on K562. The GI50 in the assay on MDA-MB-231, in the assay with NCI-H23, with NCI-H460, with NCI/ADR-RES, in the assay on OVCAR-5 and with PC-3 was > 100 µM (inactive) in each case. Moreover, the GI50 in the assay on RPMI-8226 was > 100 µM (inactive); with SF-268, > 100 µM (inactive); in the assay with SF-295, > 100 µM (inactive); in the assay on SK-MEL-5, > 100 µM (inactive); with SK-OV-3 it was > 100 µM (inactive); with SNB-75, 64.9 µM (inactive). For the same compound, the GI50 with U-251 and in the assay with UACC-257 was > 100 µM (inactive) in each case.

Regarding `COC(=O)[C@@]12CCCC(=O)[C@@H]1[C@H]1CCCC[C@H]12`, the GI50 in the assay on CCRF-CEM is 59.2 µM (inactive); in the assay with DU-145, > 100 µM (inactive); with HCC 2998, > 100 µM (inactive); in the assay with HCT-15, greater than 100 µM; with HOP-92 it was 32.1 µM (inactive); in the assay with K562 it was 35.8 µM (inactive). Further, the GI50 in the assay on MDA-MB-231, in the assay with NCI-H23, in the assay on NCI-H460, in the assay with NCI/ADR-RES, in the assay with OVCAR-5 and in the assay on PC-3 was > 100 µM (inactive) in each case. The GI50 in the assay with RPMI-8226, in the assay with SF-268, in the assay on SF-295, with SK-MEL-5, in the assay with SK-OV-3 and in the assay with SNB-75 was > 100 µM (inactive) each time. The GI50 with U-251 and with UACC-257 was > 100 µM (inactive) throughout.

For the compound `Cc1cccc(C)c1NC(=O)C(=O)C(c1ccccc1Cl)S(=O)(=O)Cc1ccccc1Cl` (stereo not given), the GI50 with CCRF-CEM was > 100 µM (inactive); in the assay with DU-145, > 100 µM (inactive); with HCC 2998, > 100 µM (inactive); with HCT-15, greater than 100 µM; with HOP-92, 18.2 µM (inactive); with K562, > 100 µM (inactive). The GI50 in the assay on MDA-MB-231 was 31.1 µM (inactive); in the assay with NCI-H23 it was 34.5 µM (inactive); with NCI-H460 it was > 100 µM (inactive); in the assay on NCI/ADR-RES, > 100 µM (inactive); in the assay on OVCAR-5 it was > 100 µM (inactive); in the assay with PC-3, > 100 µM (inactive). Further, the GI50 with RPMI-8226 was > 100 µM (inactive); with SF-268, 22.9 µM (inactive); with SF-295 it was 23.7 µM (inactive); in the assay on SK-MEL-5 it was > 100 µM (inactive); in the assay with SK-OV-3, > 29.4 µM (inactive); in the assay on SNB-75, 11.2 µM (inactive). For the same compound, the GI50 is 40.6 µM (inactive) in the assay with U-251 and > 100 µM (inactive) in the assay on UACC-257.

With `CC(C)(C)[Si](C)(C)OCC1OC(n2ccc(=O)[nH]c2=O)C(O[Si](C)(C)C(C)(C)C)/C1=C/C#N` (stereo not given), the GI50 was 4.23 µM (inactive) in the assay on CCRF-CEM; 5.48 µM (inactive) in the assay on DU-145; 5.48 µM (inactive) with HCC 2998; 4.9 µM in the assay with HCT-15; 5.93 µM (inactive) with HOP-92; 1.76 µM (inactive) in the assay with K562. In addition, the GI50 is 8.41 µM (inactive) with MDA-MB-231; 5.89 µM (inactive) in the assay on NCI-H23; 4.41 µM (inactive) in the assay with NCI-H460; 4.01 µM (inactive) in the assay on NCI/ADR-RES; 20.4 µM (inactive) in the assay with OVCAR-5; 2.88 µM (inactive) in the assay with PC-3. Further, the GI50 with RPMI-8226 was 3.71 µM (inactive); with SF-268, 6.56 µM (inactive); with SF-295, 0.67 µM (active); in the assay with SK-MEL-5, 3.07 µM (inactive); in the assay on SK-OV-3, 1.79 µM (inactive); in the assay on SNB-75, 46.6 µM (inactive). The values for the GI50 in the assay on U-251 and with UACC-257 were 4.21 µM (inactive) and 7.19 µM (inactive), respectively.
